# From patent publication US20230203043A1, “NOVEL IMIDAZOPYRAZINE DERIVATIVES” (Hoffmann-La Roche Inc., priority 2020, published 2023)
# Counter-ions that a name gives are not always drawn. Like-named read-outs stand apart in the source and are kept apart here.
# Tested on: Acinetobacter baumannii ATCC17961
# Assay: Antimicrobial susceptibility testing: 90% growth inhibitory concentration (IC90) determination in Iso-Sensitest broth, OD600 growth
# Assay type: cell-based
# Procedure, shortened: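 Growth monitored at 600 nm every 20 min for 16 h at 35±2 °C, inoculum ~5×10^(5) CFU/ml in Iso-Sensitest medium. Compounds in 10-point twofold series, e.g. 50 to 0.097 μM final; 90% inhibitory concentration taken from log-phase growth.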
# [1] = Acinetobacter baumannii, ATCC17961, 16 h, strain ATCC 17961, OD600 growth over 16 h, read-out: A. baumannii ATCC 17961 IC90
# [2] = Acinetobacter baumannii, ATCC17961, 16 h, read-out: A. baumannii ATCC 17961 IC90 (uM), strain ATCC 17961, OD600 growth over 16 h
IC90 [1] [µM],SMILES,IC90 [2] [µM],further results
1.43,"CCc1cc(Nc2nccn3c(-c4cn(CC(F)F)nc4C(F)F)cnc23)ccc1C(=O)N1CCN(C(=O)[C@@H]2C[C@@H](O)CN2)CC1 [Example 786, (4-(4-((3-(1-(2,2-difluoroethyl)-3-(difluoromethyl)-1H-pyrazol-4-yl)imidazo[1,2-a]pyrazin-8-yl)amino)-2-ethylbenzoyl)piperazin-1-yl)((2S,4R)-4-hydroxypyrrolidin-2-yl)methanone]",–,–
0.206,"N#CCn1cc(-c2cnc3c(Nc4ccc(C(=O)N5CCN(C(=O)[C@H]6CCCN6)CC5)c(Cl)c4)nccn23)c(C(F)(F)F)n1 [Example 186, 2-[4-[8-[3-chloro-4-[4-[(2R)-pyrrolidine-2-carbonyl]piperazine-1-carbonyl]anilino]imidazo[1,2-a]pyrazin-3-yl]-3-(trifluoromethyl)pyrazol-1-yl]acetonitrile]",–,–
–,"Cc1cc(Nc2nccn3c(-c4cn(C)nc4C(F)(F)F)cnc23)ccc1C(=O)N1CCN(C(=O)[C@@H]2C[C@@H](O)CN2)CC1 [Example 473, formic acid; [4-[(2S,4R)-4-hydroxypyrrolidine-2-carbonyl]piperazin-1-yl]-[2-methyl-4-[[3-[1-methyl-3-(trifluoromethyl)pyrazol-4-yl]imidazo[1,2-a]pyrazin-8-yl]amino]phenyl]methanone]",1.29,–
0.986,"C=CCn1cc(-c2cnc3c(Nc4ccc(C(=O)N5CCN(C(=O)[C@@H]6C[C@@H](O)CN6)CC5)c(CC)c4)nccn23)c(C(F)F)n1 [Example 774, (4-(4-((3-(1-allyl-3-(difluoromethyl)-1H-pyrazol-4-yl)imidazo[1,2-a]pyrazin-8-yl)amino)-2-ethylbenzoyl)piperazin-1-yl)((2S,4R)-4-hydroxypyrrolidin-2-yl)methanone]",–,–
0.294,"CCc1cc(Nc2nccn3c(-c4cn(CC(F)F)nc4C(F)(F)F)cnc23)ccc1C(=O)NCCNC(=O)[C@@H]1C[C@@H](O)CN1 [Example 667, (2S,4R)-N-(2-(4-((3-(1-(2,2-difluoroethyl)-3-(trifluoromethyl)-1H-pyrazol-4-yl)imidazo[1,2-a]pyrazin-8-yl)amino)-2-ethylbenzamido)ethyl)-4-hydroxypyrrolidine-2-carboxamide]",–,–
–,"CCc1cc(Nc2nccn3c(-c4c[nH]nc4C(F)(F)F)cnc23)ccc1C(=O)NCCCNC(=O)CCN [Example 212, N-[3-(3-aminopropanoylamino)propyl]-2-ethyl-4-[[3-[3-(trifluoromethyl)-1H-pyrazol-4-yl]imidazo[1,2-a]pyrazin-8-yl]amino]benzamide formate]",0.296,–
–,"N[C@@H]1CCN(C(=O)N2CCN(C(=O)c3ccc(Nc4nccn5c(-c6c[nH]nc6C(F)(F)F)cnc45)cc3Cl)CC2)C1 [Example 326, [4-[(3R)-3-aminopyrrolidine-1-carbonyl]piperazin-1-yl]-[2-chloro-4-[[3-[3-(trifluoromethyl)-1H-pyrazol-4-yl]imidazo[1,2-a]pyrazin-8-yl]amino]phenyl]methanone formate]",0.135,–
0.164,"CCCn1cc(-c2cnc3c(Nc4ccc(C(=O)NCCOCCN)c(CC)c4)nccn23)c(C(F)F)n1 [Example 346, N-[2-(2-aminoethoxy)ethyl]-4-[[3-[3-(difluoromethyl)-1-propylpyrazol-4-yl]imidazo[1,2-a]pyrazin-8-yl]amino]-2-ethylbenzamide]",–,–
–,"C#CCn1cc(-c2cnc3c(Nc4ccc(C(=O)NCC(=O)NCCN)c(Cl)c4)nccn23)c(C(F)(F)F)n1 [Example 116, N-[2-(2-aminoethylamino)-2-oxoethyl]-2-chloro-4-[[3-[1-prop-2-ynyl-3-(trifluoromethyl)pyrazol-4-yl]imidazo[1,2-a]pyrazin-8-yl]amino]benzamide formate]",0.22,–
0.391,"O=C(NC1CCN(C(=O)c2ccc(Nc3nccn4c(-c5c[nH]nc5C(F)(F)F)cnc34)cc2Cl)CC1)[C@@H]1C[C@@H](O)CN1 [Example 154, (2S,4R)-N-[1-[2-chloro-4-[[3-[3-(trifluoromethyl)-1H-pyrazol-4-yl]imidazo[1,2-a]pyrazin-8-yl]amino]benzoyl]piperidin-4-yl]-4-hydroxypyrrolidine-2-carboxamide]",–,–
–,"C[C@@H](NC(=O)c1ccc(Nc2nccn3c(-c4c[nH]nc4C(F)(F)F)cnc23)cc1Cl)C(=O)NCCN [Example 95, N-[(2R)-1-(2-aminoethylamino)-1-oxopropan-2-yl]-2-chloro-4-[[3-[3-(trifluoromethyl)-1H-pyrazol-4-yl]imidazo[1,2-a]pyrazin-8-yl]amino]benzamide formate]",1.53,–
0.15,"N#CCn1cc(-c2cnc3c(Nc4ccc(C(=O)NCCNCC(=O)N[C@@H]5CCNC5)c(Cl)c4)nccn23)c(C(F)(F)F)n1 [Example 818, (R)-2-chloro-4-((3-(1-(cyanomethyl)-3-(trifluoromethyl)-1H-pyrazol-4-yl)imidazo[1,2-a]pyrazin-8-yl)amino)-N-(2-((2-oxo-2-(pyrrolidin-3-ylamino)ethyl)amino)ethyl) benzamide formate]",–,–
0.953,"CCc1cc(Nc2nccn3c(-c4cn(COC)nc4C(F)F)cnc23)ccc1C(=O)N1CCN(C(=O)CN)CC1 [Example 771, 2-amino-1-(4-(4-((3-(3-(difluoromethyl)-1-(methoxymethyl)-1H-pyrazol-4-yl)imidazo[1,2-a]pyrazin-8-yl)amino)-2-ethylbenzoyl)piperazin-1-yl)ethan-1-one]",–,–
–,"CCc1cc(Nc2nccn3c(-c4cn(CCN(C)C)nc4C(F)(F)F)cnc23)ccc1C(=O)NCCOCCN [Example 309, N-[2-(2-aminoethoxy)ethyl]-4-[[3-[1-[2-(dimethylamino)ethyl]-3-(trifluoromethyl)pyrazol-4-yl]imidazo[1,2-a]pyrazin-8-yl]amino]-2-ethylbenzamide formate]",0.618,–
0.198,"Cc1cc(Nc2nccn3c(-c4cn(CCF)nc4C(F)(F)F)cnc23)ccc1C(=O)NCCOCCN [Example 253, N-[2-(2-aminoethoxy)ethyl]-4-[[3-[1-(2-fluoroethyl)-3-(trifluoromethyl)pyrazol-4-yl]imidazo[1,2-a]pyrazin-8-yl]amino]-2-methylbenzamide]",–,–
0.267,"CCc1cc(Nc2nccn3c(-c4cn(CC(F)F)nc4C(F)(F)F)cnc23)ccc1C(=O)NCC(=O)NCC1CCCN1 (stereo not drawn) [Example 548, 4-[[3-[1-(2,2-difluoroethyl)-3-(trifluoromethyl)pyrazol-4-yl]imidazo[1,2-a]pyrazin-8-yl]amino]-2-ethyl-N-[2-oxo-2-(pyrrolidin-2-ylmethylamino)ethyl] benzamide formate]",–,–
0.441,"Cc1cc(Nc2nccn3c(-c4cn(CC#N)nc4C(F)(F)F)cnc23)cc(F)c1C(=O)N[C@H](C)CNC(=O)[C@H]1[C@@H]2CNC[C@@H]21 [Example 720, (1R,5S,6r)-N-((R)-2-(4-((3-(1-(cyanomethyl)-3-(trifluoromethyl)-1H-pyrazol-4-yl)imidazo[1,2-a]pyrazin-8-yl)amino)-2-fluoro-6-methylbenzamido)propyl)-3-azabicyclo[3.1.0] hexane-6-carboxamide formate]",–,–
0.315,"C[C@@H](NC(=O)c1ccc(Nc2nccn3c(-c4cn(CC#N)nc4C(F)(F)F)cnc23)cc1Cl)C(=O)N1CC[C@@H](N)C1 [Example 674, N-[(1R)-2-[(3R)-3-aminopyrrolidin-1-yl]-1-methyl-2-oxo-ethyl]-2-chloro-4-[[3-[1-(cyanomethyl)-3-(trifluoromethyl)pyrazol-4-yl]imidazo[1,2-a]pyrazin-8-yl]amino] benzamide formate]",–,–
0.18,"N#CCn1cc(-c2cnc3c(Nc4ccc(C(=O)NCCNCC(=O)N[C@H]5CCNC5)c(Cl)c4)nccn23)c(C(F)(F)F)n1 [Example 817, (S)-2-chloro-4-((3-(1-(cyanomethyl)-3-(trifluoromethyl)-1H-pyrazol-4-yl)imidazo[1,2-a]pyrazin-8-yl)amino)-N-(2-((2-oxo-2-(pyrrolidin-3-ylamino)ethyl)amino)ethyl) benzamide formate]",–,–
–,"CCc1cc(Nc2nccn3c(-c4cn(CC(F)F)nc4C(F)(F)F)cnc23)ccc1C(=O)NCC(=O)N1CCCC(N)C1 (stereo not drawn) [Example 544, N-[2-(3-amino-1-piperidyl)-2-oxo-ethyl]-4-[[3-[1-(2,2-difluoroethyl)-3-(trifluoromethyl)pyrazol-4-yl]imidazo[1,2-a]pyrazin-8-yl]amino]-2-ethyl-benzamide formate]",0.232,–
1.24,"C#CC(C)n1cc(-c2cnc3c(Nc4ccc(C(=O)N5CCN(C(=O)C(C)N)CC5)c(CC)c4)nccn23)c(C(F)F)n1 (stereo in doubt) [Example 784, (2R)-2-amino-1-(4-(4-((3-(1-(but-3-yn-2-yl)-3-(difluoromethyl)-1H-pyrazol-4-yl)imidazo [1,2-a]pyrazin-8-yl)amino)-2-ethylbenzoyl)piperazin-1-yl)propan-1-one (mixture of epimers)]",–,–
–,"CCc1cc(Nc2nccn3c(-c4cn(CC(F)F)nc4C(F)(F)F)cnc23)ccc1C(=O)NCCOCCN [Example 302, N-[2-(2-aminoethoxy)ethyl]-4-[[3-[1-(2,2-difluoroethyl)-3-(trifluoromethyl)pyrazol-4-yl]imidazo[1,2-a]pyrazin-8-yl]amino]-2-ethylbenzamide formate]",0.17,–
–,"C=CCn1cc(-c2cnc3c(Nc4ccc(C(=O)NCCOC[C@@H](C)N)c(CC)c4)nccn23)c(C(F)(F)F)n1 [Example 148, N-[2-[(2R)-2-aminopropoxy]ethyl]-2-ethyl-4-[[3-[1-prop-2-enyl-3-(trifluoromethyl)pyrazol-4-yl]imidazo[1,2-a]pyrazin-8-yl]amino]benzamide]",–,"IC90 (strain ATCC 17961, OD600 growth over 16 h, read-out: A. baumannii ATCC 17961 IC90): 0.084 µM"
0.222,"C#CCn1cc(-c2cnc3c(Nc4ccc(C(=O)N[C@H](C)CN)c(CC)c4)nccn23)c(C(F)(F)F)n1 [Example 106, N-[(2R)-1-aminopropan-2-yl]-2-ethyl-4-[[3-[1-prop-2-ynyl-3-(trifluoromethyl)pyrazol-4-yl]imidazo[1,2-a]pyrazin-8-yl]amino]benzamide]",–,–
